Measured values published in publication PMC11277489, “Novel Piperazine Derivatives of Vindoline as Anticancer Agents” (International Journal of Molecular Sciences, 2024).
Read-outs that look alike come from different tables or passages of the source.

Columns and labels:
SW-620 = assay: NCI60 one-dose screen (10 μM), Colon Cancer; assay type: cell-based; conditions: Homo sapiens
NCI-H23 = assay: NCI60 one-dose screen (10 μM), Non-small Cell Lung Cancer; assay type: cell-based; conditions: Homo sapiens
RPMI-8226 = assay: NCI60 one-dose screen (10 μM), Leukemia; assay type: cell-based; conditions: Homo sapiens
HCT-15 = assay: NCI60 one-dose screen (10 μM), Colon Cancer; assay type: cell-based; conditions: Homo sapiens
A549/ATCC = assay: NCI60 one-dose screen (10 μM), Non-small Cell Lung Cancer; assay type: cell-based; conditions: Homo sapiens
SF-268 = assay: NCI60 one-dose screen (10 μM), CNS Cancer; assay type: cell-based; conditions: Homo sapiens
HS 578T = assay: NCI60 one-dose screen (10 μM), Breast Cancer; assay type: cell-based; conditions: Homo sapiens, read-out: Growth percent rate
KM12 = assay: NCI60 one-dose screen (10 μM), Colon Cancer; assay type: cell-based, human; conditions: Homo sapiens
MCF7 = assay: NCI60 one-dose screen (10 μM), Breast Cancer; assay type: cell-based; conditions: Homo sapiens
MOLT-4 = assay: NCI60 one-dose screen (10 μM), Leukemia; assay type: cell-based, human; conditions: Homo sapiens
SNB-19 = assay: NCI60 one-dose screen (10 μM), CNS Cancer; assay type: cell-based; conditions: Homo sapiens
SK-MEL-28 = assay: NCI60 one-dose screen (10 μM), Melanoma; assay type: cell-based; conditions: Homo sapiens
SK-MEL-5 = assay: NCI60 one-dose screen (10 μM), Melanoma; assay type: cell-based, human; conditions: Homo sapiens
NCI-H322M = assay: NCI60 one-dose screen (10 μM), Non-small Cell Lung Cancer; assay type: cell-based; conditions: Homo sapiens, read-out: Growth percent rate
786–0 = assay: NCI60 one-dose screen (10 μM), Renal Cancer; assay type: cell-based; conditions: Homo sapiens
SN12C = assay: NCI60 one-dose screen (10 μM), Renal Cancer; assay type: cell-based; conditions: Homo sapiens, read-out: Growth percent rate
HCT-116 = assay: NCI60 one-dose screen (10 μM), Colon Cancer; assay type: cell-based; conditions: Homo sapiens
OVCAR-8 = assay: NCI60 one-dose screen (10 μM), Ovarian Cancer; assay type: cell-based; conditions: Homo sapiens
CAKI-1 = assay: NCI60 one-dose screen (10 μM), Renal Cancer; assay type: cell-based; conditions: Homo sapiens
OVCAR-3 = assay: NCI60 one-dose screen (10 μM), Ovarian Cancer; assay type: cell-based; conditions: Homo sapiens
MALME-3M = assay: NCI60 one-dose screen (10 μM), Melanoma; assay type: cell-based; conditions: Homo sapiens, read-out: Growth percent rate
K-562 = assay: NCI60 one-dose screen (10 μM), Leukemia; assay type: cell-based; conditions: Homo sapiens
COLO 205 = assay: NCI60 one-dose screen (10 μM), Colon Cancer; assay type: cell-based, human; conditions: Homo sapiens
ACHN = assay: NCI60 one-dose screen (10 μM), Renal Cancer; assay type: cell-based; conditions: Homo sapiens, read-out: Growth percent rate
NCI-H522 = assay: NCI60 one-dose screen (10 μM), Non-small Cell Lung Cancer; assay type: cell-based; conditions: Homo sapiens
RXF 393 = assay: NCI60 one-dose screen (10 μM), Renal Cancer; assay type: cell-based, human; conditions: Homo sapiens
HOP-62 = assay: NCI60 one-dose screen (10 μM), Non-small Cell Lung Cancer; assay type: cell-based; conditions: Homo sapiens
SK-MEL-2 = assay: NCI60 one-dose screen (10 μM), Melanoma; assay type: cell-based; conditions: Homo sapiens
OVCAR-4 = assay: NCI60 one-dose screen (10 μM), Ovarian Cancer; assay type: cell-based; conditions: Homo sapiens
IGROV1 = assay: NCI60 one-dose screen (10 μM), Ovarian Cancer; assay type: cell-based; conditions: Homo sapiens
HL-60(TB) = assay: NCI60 one-dose screen (10 μM), Leukemia; assay type: cell-based; conditions: Homo sapiens
CCRF-CEM = assay: NCI60 one-dose screen (10 μM), Leukemia; assay type: cell-based; conditions: Homo sapiens, read-out: Growth percent rate
SF-539 = assay: NCI60 one-dose screen (10 μM), CNS Cancer; assay type: cell-based, human; conditions: Homo sapiens
MDA-MB-435 = assay: NCI60 one-dose screen (10 μM), Melanoma; assay type: cell-based; conditions: Homo sapiens
EKVX = assay: NCI60 one-dose screen (10 μM), Non-small Cell Lung Cancer; assay type: cell-based; conditions: Homo sapiens, read-out: Growth percent rate
UACC-257 = assay: NCI60 one-dose screen (10 μM), Melanoma; assay type: cell-based; conditions: Homo sapiens
SF-295 = assay: NCI60 one-dose screen (10 μM), CNS Cancer; assay type: cell-based; conditions: Homo sapiens
M14 = assay: NCI60 one-dose screen (10 μM), Melanoma; assay type: cell-based; conditions: Homo sapiens
HT29 = assay: NCI60 one-dose screen (10 μM), Colon Cancer; assay type: cell-based; conditions: Homo sapiens
LOX IMVI = assay: NCI60 one-dose screen (10 μM), Melanoma; assay type: cell-based, human; conditions: Homo sapiens, LOX IMVI, read-out: Growth percent rate
TK-10 = assay: NCI60 one-dose screen (10 μM), Renal Cancer; assay type: cell-based; conditions: Homo sapiens
HCC-2998 = assay: NCI60 one-dose screen (10 μM), Colon Cancer; assay type: cell-based; conditions: Homo sapiens
[1] = 10 μM, Non-small Cell Lung Cancer

SMILES: CCC12C=CCN3CCC4(c5cc(NC(=O)CN6CCN(Cc7ccc(F)cc7)CC6)c(OC)cc5N(C)C4C(O)(C(=O)OC)C1OC(C)=O)C32 (stereo not drawn) [Compound 19]
- activity at 10 µM (SW-620; SW-620, read-out: Growth percent rate): 118%
- activity at 10 µM (NCI-H23; NCI-H23, read-out: Growth percent rate): 103%
- activity at 10 µM (RPMI-8226; RPMI-8226, read-out: Growth percent rate): 94.1%
- activity at 10 µM (HCT-15; HCT-15, read-out: Growth percent rate): 95%
- activity at 10 µM (A549/ATCC; A549, read-out: Growth percent rate): 89%
- activity at 10 µM (SF-268; SF-268, read-out: Growth percent rate): 102%
- activity at 10 µM (HS 578T; Hs-578T): 110%
- activity at 10 µM (KM12; KM12, read-out: Growth percent rate): 115%
- activity at 10 µM (MCF7; MCF7, read-out: Growth percent rate): 80%
- activity at 10 µM (MOLT-4; MOLT-4, read-out: Growth percent rate): 78%
- activity at 10 µM (SNB-19; SNB-19, read-out: Growth percent rate): 97.2%
- activity at 10 µM (SK-MEL-28; SK-MEL-28, read-out: Growth percent rate): 109%
- activity at 10 µM (SK-MEL-5; SK-MEL-5, read-out: Growth percent rate): 92.8%
- activity at 10 µM (NCI-H322M): 98.5%
- activity at 10 µM (786–0; 786-0, read-out: Growth percent rate): 92.8%
- activity at 10 µM (SN12C): 103%
- activity at 10 µM (HCT-116; HCT-116, read-out: Growth percent rate): 101%
- activity at 10 µM (OVCAR-8; OVCAR-8, read-out: Growth percent rate): 100%
- activity at 10 µM (CAKI-1; CAKI-1, read-out: Growth percent rate): 69.3%
- activity at 10 µM (OVCAR-3; OVCAR-3, read-out: Growth percent rate): 119%
- activity at 10 µM (MALME-3M; Malme-3M): 102%
- activity at 10 µM (K-562; K562, read-out: Growth percent rate): 74%
- activity at 10 µM (COLO 205; COLO 205, read-out: Growth percent rate): 101%
- activity at 10 µM (ACHN): 102%
- activity at 10 µM (NCI-H522; NCI-H522, read-out: Growth percent rate): 93.5%
- activity at 10 µM (RXF 393; RXF 393, read-out: Growth percent rate): 90.4%
- activity at 10 µM (HOP-62; HOP-62, read-out: Growth percent rate): 106%
- activity at 10 µM (SK-MEL-2; SK-MEL-2, read-out: Growth percent rate): 103%
- activity at 10 µM (OVCAR-4; OVCAR-4, read-out: Growth percent rate): 102%
- activity at 10 µM (IGROV1; IGROV-1, read-out: Growth percent rate): 113%
- activity at 10 µM (HL-60(TB); HL-60, read-out: Growth percent rate): 101%
- activity at 10 µM (CCRF-CEM): 105%
- activity at 10 µM (SF-539; SF-539, read-out: Growth percent rate): 102%
- activity at 10 µM (MDA-MB-435; MDA-MB-435, read-out: Growth percent rate): 103%
- activity at 10 µM (EKVX): 88.8%
- activity at 10 µM (UACC-257; UACC-257, read-out: Growth percent rate): 98.4%
- activity at 10 µM (SF-295; SF-295, read-out: Growth percent rate): 99.8%
- activity at 10 µM (M14; M14, read-out: Growth percent rate): 102%
- activity at 10 µM (HT29; HT-29, read-out: Growth percent rate): 108%
- activity at 10 µM (LOX IMVI): 99.1%
- activity at 10 µM (TK-10; TK-10, read-out: Growth percent rate): 107%
- activity at 10 µM (HCC-2998; HCC 2998, read-out: Growth percent rate): 102%

SMILES: CCC12C=CCN3CCC4(c5cc(NC(=O)CN6CCN(C(c7ccc(F)cc7)c7ccc(F)cc7)CC6)c(OC)cc5N(C)C4C(O)(C(=O)OC)C1OC(C)=O)C32 (stereo not drawn) [Compound 20]
- activity at 10 µM (SW-620; 10 μM, SW-620, Colon Cancer, read-out: Growth percent rate): 34.2%
- activity at 10 µM (NCI-H23; 10 μM, NCI-H23, Non-small Cell Lung Cancer, read-out: Growth percent rate): 38%
- activity at 10 µM (RPMI-8226; 10 μM, RPMI-8226, Leukemia, read-out: Growth percent rate): -2.68%
- activity at 10 µM (HCT-15; 10 μM, HCT-15, Colon Cancer, read-out: Growth percent rate): 18.3%
- activity at 10 µM (A549/ATCC; 10 μM, A549/ATCC, Non-small Cell Lung Cancer, read-out: Growth percent rate): 31%
- activity at 10 µM (SF-268; 10 μM, SF-268, CNS Cancer, read-out: Growth percent rate): 28.1%
- activity at 10 µM (HS 578T; 10 μM, HS 578T, Breast Cancer): 15.5%
- activity at 10 µM (KM12; 10 μM, KM12, Colon Cancer, read-out: Growth percent rate): 20.2%
- activity at 10 µM (MCF7; 10 μM, MCF7, Breast Cancer, read-out: Growth percent rate): 5.47%
- activity at 10 µM (MOLT-4; 10 μM, MOLT-4, Leukemia, read-out: Growth percent rate): 1.17%
- activity at 10 µM (SNB-19; 10 μM, SNB-19, CNS Cancer, read-out: Growth percent rate): 21.5%
- activity at 10 µM (SK-MEL-28; 10 μM, SK-MEL-28, Melanoma, read-out: Growth percent rate): 51.2%
- activity at 10 µM (SK-MEL-5; 10 μM, SK-MEL-5, Melanoma, read-out: Growth percent rate): -76.2%
- activity at 10 µM (NCI-H322M; [1]): 42.8%
- activity at 10 µM (786–0; 10 μM, 786-0, Renal Cancer, read-out: Growth percent rate): 34%
- activity at 10 µM (SN12C; 10 μM, Renal Cancer): 26.9%
- activity at 10 µM (HCT-116; 10 μM, HCT-116, Colon Cancer, read-out: Growth percent rate): 27.9%
- activity at 10 µM (OVCAR-8; 10 μM, OVCAR-8, Ovarian Cancer, read-out: Growth percent rate): 45.6%
- activity at 10 µM (CAKI-1; 10 μM, CAKI-1, Renal Cancer, read-out: Growth percent rate): 27.7%
- activity at 10 µM (OVCAR-3; 10 μM, OVCAR-3, Ovarian Cancer, read-out: Growth percent rate): 36.5%
- activity at 10 µM (MALME-3M; 10 μM, MALME-3M, Melanoma): 0%
- activity at 10 µM (K-562; K562, 10 μM, K-562, Leukemia, read-out: Growth percent rate): 17%
- activity at 10 µM (COLO 205; 10 μM, COLO 205, Colon Cancer, read-out: Growth percent rate): -60.5%
- activity at 10 µM (ACHN; 10 μM, Renal Cancer): 11.4%
- activity at 10 µM (NCI-H522; 10 μM, NCI-H522, Non-small Cell Lung Cancer, read-out: Growth percent rate): 11%
- activity at 10 µM (RXF 393; 10 μM, RXF 393, Renal Cancer, read-out: Growth percent rate): -44%
- activity at 10 µM (HOP-62; 10 μM, HOP-62, Non-small Cell Lung Cancer, read-out: Growth percent rate): 60.3%
- activity at 10 µM (SK-MEL-2; 10 μM, SK-MEL-2, Melanoma, read-out: Growth percent rate): -34.7%
- activity at 10 µM (OVCAR-4; 10 μM, OVCAR-4, Ovarian Cancer, read-out: Growth percent rate): 31.4%
- activity at 10 µM (IGROV1; IGROV-1, 10 μM, IGROV1, Ovarian Cancer, read-out: Growth percent rate): 44.9%
- activity at 10 µM (HL-60(TB); 10 μM, HL-60(TB), Leukemia, read-out: Growth percent rate): -10.8%
- activity at 10 µM (CCRF-CEM; 10 μM, Leukemia): -18.9%
- activity at 10 µM (SF-539; 10 μM, SF-539, CNS Cancer, read-out: Growth percent rate): -61.1%
- activity at 10 µM (MDA-MB-435; 10 μM, MDA-MB-435, Melanoma, read-out: Growth percent rate): 22.2%
- activity at 10 µM (EKVX; [1]): 16.2%
- activity at 10 µM (UACC-257; 10 μM, UACC-257, Melanoma, read-out: Growth percent rate): 37.9%
- activity at 10 µM (SF-295; 10 μM, SF-295, CNS Cancer, read-out: Growth percent rate): 13.8%
- activity at 10 µM (M14; 10 μM, M14, Melanoma, read-out: Growth percent rate): 49.7%
- activity at 10 µM (HT29; HT-29, 10 μM, HT29, Colon Cancer, read-out: Growth percent rate): -40.8%
- activity at 10 µM (LOX IMVI; 10 μM, Melanoma): -61%
- activity at 10 µM (TK-10; 10 μM, TK-10, Renal Cancer, read-out: Growth percent rate): 37.6%
- activity at 10 µM (HCC-2998; 10 μM, HCC-2998, Colon Cancer, read-out: Growth percent rate): 3.93%
